Reference: patent US20010044151A1, “Ligands for modulating the expression of exogenous genes via an ecdysone receptor complex” (priority 1998, published 2001)

target: T1, ecdysteroid receptor complex in Plodia interpunctella (IAL-PID2) nuclear extract (Plodia interpunctella, UniProt Q6RVD3); test: Competitive 3H-ponasterone A binding assay, Plodia nuclear ecdysone receptor extract; details: 3H-ponasterone A displacement
T1 sequence (Q6RVD3 1-541): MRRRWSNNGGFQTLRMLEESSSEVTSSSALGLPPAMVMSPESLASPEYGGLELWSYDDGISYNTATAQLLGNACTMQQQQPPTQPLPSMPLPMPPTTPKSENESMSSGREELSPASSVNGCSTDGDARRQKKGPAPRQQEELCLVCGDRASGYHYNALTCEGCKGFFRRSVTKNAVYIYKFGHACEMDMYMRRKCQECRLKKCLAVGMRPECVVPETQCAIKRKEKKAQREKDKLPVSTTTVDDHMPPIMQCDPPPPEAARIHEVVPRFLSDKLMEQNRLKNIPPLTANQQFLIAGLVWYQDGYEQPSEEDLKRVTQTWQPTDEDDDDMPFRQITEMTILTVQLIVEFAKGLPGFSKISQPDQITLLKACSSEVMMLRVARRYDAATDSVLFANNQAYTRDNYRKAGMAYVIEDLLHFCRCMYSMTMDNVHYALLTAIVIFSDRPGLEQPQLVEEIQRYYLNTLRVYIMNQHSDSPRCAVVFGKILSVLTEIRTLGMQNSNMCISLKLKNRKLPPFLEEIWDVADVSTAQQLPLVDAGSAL
T1 sequence (Q6IVK1 1-415 partner): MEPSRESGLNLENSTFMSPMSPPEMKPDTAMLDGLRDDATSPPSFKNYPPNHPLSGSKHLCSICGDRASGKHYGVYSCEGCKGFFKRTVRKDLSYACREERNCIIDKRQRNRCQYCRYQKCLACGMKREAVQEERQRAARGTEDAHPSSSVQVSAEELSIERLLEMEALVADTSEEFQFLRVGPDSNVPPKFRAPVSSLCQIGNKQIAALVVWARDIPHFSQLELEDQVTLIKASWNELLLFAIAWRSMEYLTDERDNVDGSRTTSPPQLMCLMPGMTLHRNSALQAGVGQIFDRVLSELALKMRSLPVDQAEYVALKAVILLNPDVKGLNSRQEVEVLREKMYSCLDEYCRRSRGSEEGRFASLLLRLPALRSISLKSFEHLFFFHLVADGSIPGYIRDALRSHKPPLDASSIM
Description: The cell line IAL-PID2, derived from imaginal wing discs of the lepidopteran Plodia interpunctella was obtained from H. Oberlander and maintained as described (Lynn, E. E. and Oberlander, H., (1983), J. Insect Physiology, 29, 591-96). A 300 ml stationary phase culture of P. interpunctella cells was centrifuged at 700×g for 10 mm at room temperature to pellet the cells. The supernatant was aspirated and the cellular pellet resuspended in 35 ml TMT (TM buffer with 0.1% Triton X-100). The suspension was homogenized with twenty up and down strokes of a Dounce homogenizer on ice. Homogenate was incubated on ice for 10 minutes and then centrifuged for 15 min at 900×g. The pellet was resuspenced in 15 ml TM buffer and centrifuged at 2,300×g. This pellet was extracted in TMK buffer (TM buffer with 800 mM KCl) by using a glass rod to crush the pellet until a gelatinous slurry was formed and incubated on ice for 15 minutes. The extract was centrifuged at 100,000×g in a swinging bucket rotor for 60 minutes. The supernatant, which constituted the nuclear extract, was desalted on a 10 DG desalting column (Bio-Rad, 732-2010) equilibrated with T-buffer. The total protein concentration in the nuclear extract was adjusted to 5 mg per ml with T-buffer containing 1 mM DTT.
^3H ponasterone A, a potent phytoecdysteroid, (66,000 dpm; specific activity 170 Ci/mmole; NEN Life Science Products, Boston, Mass.) was mixed with 100 μl Kc cytosolic or Plodia nuclear ecdysone receptor extracts in […] glass test tubes in the absence or presence of 10 μM unlabelled 20-hydroxyecdysone (20E) to obtain an estimate of total or non-specific respectively, binding of tritiated ponasterone A. The tubes were vortexed and incubated overnight at 4° C. for Kc cytosolic extracts or 1.5 hours for Plodia nuclear extracts for binding reactions to reach equilibrium. At the end of equilibrium binding times, the bound tritiated ponasterone A was separated from the unbound by addition of ice-cold 600 μl or 300 μl dextran-coated charcoal solution (500 mg of Sigma HCL-washed activated charcoal, 50 mg Pharmacia Dextran T70, 50 ml T-buffer) to Kc or Plodia extracts, respectively. The tubes were vortexed briefly and centrifuged at 7,000×g to pellet the charcoal. The supernatant, 600 μl or 300 μl for Kc or Plodia extract reactions, respectively, containing tritiated ponasterone A bound to proteins, was aspirated into liquid scintillation vials containing 5 ml scintillation cocktail (ReadySafe®, Beckmann) each The mixture was vortexed and the amount of total or non-specifically bound radioactivity measured in a Beckmann LS500 liquid scinitllation counter with a 60% counting efficiency for tritium.
The concentrations of competitors that inhibited 50% of tritiated ponasterone A binding (IC50) was determined by incubating Kc or Plodia nuclear extracts or extracts of bacteria producing CfEcR(CDEF)-GST and CfUSP-GST fusions proteins with ^3H-ponasterone A (66,000 dpm per reaction) in the presence of a range of concentrations (0.1 nM to 10 μM) of test compounds. In the case of binding reactions using bacterial fusion proteins, 20 or one μl extract of bacteria producing CfEcR(CDEF)-GST or CfUSP-GST fusion proteins, respectively, were included per binding reaction. The assay conditions and determination of total and non-specific binding was as described above. The volume of competitor in solvent, like that for 20E or solvent alone, was kept at 1% of total reaction volume by using a 100 fold concentrated stock solution (i.e. a 100 fold dilution of stock solutions). The remainder of the assay was as described above. Each reaction was carried out in duplicate per concentration per test compound. Specific binding of ^3H-ponasterone A was determined by subtracting non-specific binding (that obtained in the presence of 10 μM 20E) from total (no competitor) or competed radioactivity bound. […]

| Compound | Plodia log(1/IC50) |
| --- | --- |
| CCc1c(OC)cccc1C(=O)NN(C(=O)c1cccc(OC)c1)C(C)(C)C [Ligand 1] | 8.52 |
| Cc1cc(C)cc(C(=O)N(NC(=O)c2ccc3c(c2C)OCCO3)C(C)(C)C)c1 [Ligand 2] | 9.14 |
| COc1cccc(C(=O)NN(C(=O)c2cc(C)cc(C)c2)C(C)(C)C)c1C [Ligand 3] | 9.04 |
| CCc1c(OC)cccc1C(=O)NN(C(=O)c1cc(F)cc(F)c1)C(C)(C)C [Ligand 4] | 8.51 |
| CCc1c(OC)cccc1C(=O)NN(C(=O)c1cc(C)cc(C)c1)C(C)(C)C [Ligand 5] | 9.49 |
| CCOc1cccc(C(=O)NN(C(=O)c2cc(C)cc(C)c2)C(C)(C)C)c1CC [Ligand 12] | 9.63 |
| CCc1c(OC)cccc1C(=O)NN(C(=O)c1cc(Cl)cc(Cl)c1)C(C)(C)C [Ligand 13] | 9.06 |
